Reference: patent US20240368158A1, “KINASE MODULATORS, COMPOSITIONS COMPRISING THE KINASE MODULATOR, AND METHODS OF USING THE SAME” (BIOFRONT LTD, priority 2021, published 2024)

Assays:
[1] = system: HPK1 p-SLP-76 in Jurkat cells; assay: HPK1 p-SLP-76 inhibition assay in Jurkat cells (HTRF); assay type: cell-based; conditions: Homo sapiens, 4 h compound, anti-CD3 stimulation 20 min
Method: Before compound treatment, Jurkat cells were starved in PRMI-1640 medium supplemented with 0.5% FBS overnight. The cell density was adjusted to 1*10^7 cells/mL in assay medium (RPMI-1640 no phenol red with 0.5% FBS) and 16 uL cell suspension was transferred per well to a 384-well plate (Corning #3765). […] of test compound was prepared in assay medium and 4 uL was added per well to the 384-well plate. The plate was then incubated at 37° C., 5% CO2 for 4 h. Jurkat cells in 384-well plate were stimulated with anti-CD3 (BD Biosciences #555329, final conc. is 10 ug/mL) for 20 min at 37° C., 5% CO2 by adding 4 uL 6× antibody solution per well. Phospho-SLP76 HTRF kit was purchased from Cisbio (63ADK076PEH). 8 uL 4× Lysis Buffer was added to 384-well plate after anti-CD3 stimulation. The plate was centrifuged at 1,000 rpm for 1 min, shaken at 250 rpm for 60 min and centrifuged again at 1,000 rpm for 5 min. Afterwards the cell lysates were transferred to the assay plate (Greiner #784075) with 16 uL per well. 4 uL detection antibody mix per well prepared in Detection Buffer was added to the assay plate, followed by centrifugation at 1,000 rpm for 1 min and incubation at 25° C. overnight. The fluorescence emission at two different wavelengths (665 nm and 620 nm) was read by an HTRF compatible microplate reader and the IC50 value of the compound was calculated.

HPK1 = target: T1, HPK1 (Homo sapiens, UniProt Q92918); assay: HPK1 enzyme inhibition assay (ADP-Glo); assay type: biochemical; conditions: MBP substrate, ATP
T1 construct: purchased Signal Chem M23-11G-10
T1 sequence (Q92918 1-346 limits assumed): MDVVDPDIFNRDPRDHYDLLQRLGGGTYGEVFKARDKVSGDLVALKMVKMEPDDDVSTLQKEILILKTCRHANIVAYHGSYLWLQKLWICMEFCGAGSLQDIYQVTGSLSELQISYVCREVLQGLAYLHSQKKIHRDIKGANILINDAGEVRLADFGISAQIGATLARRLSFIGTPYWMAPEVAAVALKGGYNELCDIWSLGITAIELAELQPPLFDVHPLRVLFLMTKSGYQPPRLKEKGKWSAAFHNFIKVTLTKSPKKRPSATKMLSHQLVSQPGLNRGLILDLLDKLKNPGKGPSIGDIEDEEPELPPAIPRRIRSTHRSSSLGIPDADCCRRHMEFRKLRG
Method: The compound was dissolved in 100% DMSO at the concentration of 10 mM. The HPK1 protein was purchased from Signal Chem (M23-11G-10). 2.5 μL per well of 2×HPK1 protein was added to assay plate containing the test compound, centrifuged at 1500 rpm for 1 minute, and then incubated at 25° C. for 60 minutes. MBP protein was purchased from Signal Chem (M42-51N) and ATP was purchased from Promega (V9102). The two were added 2.5 μL per well mixture of 2×MBP (0.2 ug/ul) and ATP (20 μM), centrifuged at 1500 rpm for 1 minute, then incubated at 25° C. for 60 minutes. Then added 5 μL of ADP-Glo from Promega (V9102) to the assay plate and depleted the unconsumed ATP for 60 minutes. Then centrifuged at 1500 rpm for 1 minute and incubated at 25° C. for 60 minutes. Finally, 10 μL of the kinase assay reagent from Promega (V9102) was added to the assay plate to convert ADP to ATP, centrifuged at 1500 rpm for 1 minute, incubate at 25° C. for 40 minutes. After 40 minutes incubation, the […] was determined. Based on the results, the IC50 value of the compound was calculated.

FLT3-ITD = target: T2, FLT3-ITD (Homo sapiens, UniProt P36888); assay: FLT3-ITD enzyme inhibition assay (HTRF KinEASE-TK); assay type: biochemical; conditions: FLT3-ITD protein, ATP 15 μM
T2 construct: The FLT3-ITD protein was purchased from Invitrogen (PV6190)
T2 sequence (P36888 1-993): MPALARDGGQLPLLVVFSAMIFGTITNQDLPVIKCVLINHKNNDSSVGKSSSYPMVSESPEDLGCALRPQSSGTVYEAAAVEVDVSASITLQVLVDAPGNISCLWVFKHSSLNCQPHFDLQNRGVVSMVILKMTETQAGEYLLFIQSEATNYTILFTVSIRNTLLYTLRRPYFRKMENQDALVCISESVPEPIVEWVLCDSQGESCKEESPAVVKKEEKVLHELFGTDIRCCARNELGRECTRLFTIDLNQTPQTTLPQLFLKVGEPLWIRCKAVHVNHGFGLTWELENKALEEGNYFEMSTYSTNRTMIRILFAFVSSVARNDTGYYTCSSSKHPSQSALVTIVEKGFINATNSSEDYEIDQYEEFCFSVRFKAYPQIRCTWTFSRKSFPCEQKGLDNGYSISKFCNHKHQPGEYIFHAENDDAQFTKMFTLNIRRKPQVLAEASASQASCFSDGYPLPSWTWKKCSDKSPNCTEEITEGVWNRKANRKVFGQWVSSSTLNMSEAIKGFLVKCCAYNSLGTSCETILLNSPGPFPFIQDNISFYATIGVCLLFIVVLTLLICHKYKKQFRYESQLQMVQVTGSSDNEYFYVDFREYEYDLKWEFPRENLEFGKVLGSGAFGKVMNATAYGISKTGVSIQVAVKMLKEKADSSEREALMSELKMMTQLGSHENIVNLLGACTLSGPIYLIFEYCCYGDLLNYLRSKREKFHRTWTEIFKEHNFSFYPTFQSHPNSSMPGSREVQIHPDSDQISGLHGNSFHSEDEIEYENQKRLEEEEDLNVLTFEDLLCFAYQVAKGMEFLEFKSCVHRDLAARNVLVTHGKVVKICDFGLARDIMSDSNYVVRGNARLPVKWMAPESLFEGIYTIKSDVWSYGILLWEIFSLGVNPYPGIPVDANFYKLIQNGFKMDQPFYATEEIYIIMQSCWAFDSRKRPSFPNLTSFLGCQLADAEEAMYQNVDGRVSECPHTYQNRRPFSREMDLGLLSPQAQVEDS
Method: The compound was dissolved in 100% DMSO at the concentration of 10 mM. The FLT3-ITD protein was purchased from Invitrogen (PV6190). 5 μL per well of 2×FLT3-ITD protein was added to assay plate containing the test compound, centrifuged at 1000 rpm for 1 minute, and then incubated at 25° C. for 15 minutes. HTRF KinEASE-TK kit was purchased from Cisbio (62TK0PEC) and ATP was purchased from Thermo Fisher Scientific (R0441). TK-Substrate-biotin and ATP were added 5 μL per well mixture of 2×TK-Substrate-biotin (final conc. is […]) and ATP (final conc. is 15 μM), centrifuged at 1000 rpm for 1 minute, then incubated at 25° C. for 60 minutes. Then added 10 μL of detection buffer (0.25×TK-antibody Eu3+-cryptate, 0.125 μM streptavidine-XL 665) to the assay plate and centrifuged at 1000 rpm for 1 minute then incubated at 25° C. for 60 minutes and 4° C. incubated for overnight, the product was determined. Based on the results, the IC50 value of the compound was calculated.

| IC50 [1] [nM] | IC50 (HPK1) [nM] | IC50 (FLT3-ITD) [nM] | SMILES |
| --- | --- | --- | --- |
| > 10000 | ≤ 10 | ≤ 10 | CCc1c[nH]c2ncc(-c3cccc(N4CCN(C(=O)COc5ccc(C[C@@H](N)C(=O)O)cc5)CC4=O)c3)c(Cl)c12 [Example 45, (R)-2-amino-3-(4-(2-(4-(3-(4-chloro-3-ethyl-1H-pyrrolo[2,3-b]pyridin-5-yl)phenyl)-3-oxopiperazin-1-yl)-2-oxoethoxy)phenyl)propanoic acid] |
| 3000 to 10000 | 10 to 100 | 10 to 100 | O=C1CNCCN1c1cccc(-c2cnc3[nH]cc(C#Cc4ccccn4)c3c2Cl)c1 [Example 7, 1-(3-(4-chloro-3-(pyridin-2-ylethynyl)-1H-pyrrolo[2,3-b]pyridin-5-yl)phenyl) piperazin-2-one] |
| 300 to 3000 | ≤ 10 | ≤ 10 | CS(=O)(=O)N1CCN(c2cccc(-c3cnc4[nH]cc(C5CC5)c4c3Cl)c2)C(=O)C1 [Example 53, 1-(3-(4-chloro-3-cyclopropyl-1H-pyrrolo[2,3-b]pyridin-5-yl)phenyl)-4-(methylsulfonyl)piperazin-2-one] |
| 300 to 3000 | ≤ 10 | ≤ 10 | CCc1c[nH]c2ncc(-c3cccc(N4CCN(C(=O)COc5cccc(C6O[C@H](CO)[C@@H](O)[C@H](O)[C@H]6O)c5)CC4=O)c3)c(Cl)c12 (stereo partly drawn) [Example 50, 1-(3-(4-chloro-3-ethyl-1H-pyrrolo[2,3-b]pyridin-5-yl)phenyl)-4-(2-(3-((3R,4R,5S,6R)-3,4,5-trihydroxy-6-(hydroxymethyl)tetrahydro-2H-pyran-2-yl)phenoxy)acetyl)piperazin-2-one] |
| ≤ 300 | ≤ 10 | ≤ 10 | CCc1c[nH]c2ncc(-c3cccc(N4CCN(C(=O)COC)CC4=O)c3)c(Cl)c12 [Example 25, 1-(3-(4-chloro-3-ethyl-1H-pyrrolo[2,3-b]pyridin-5-yl)phenyl)-4-(2-methoxyacetyl)piperazin-2-one] |
| 300 to 3000 | ≤ 10 | ≤ 10 | CCc1c[nH]c2ncc(-c3cccc(N4CCN(C(=O)CNC(=O)[C@@H](N)C(C)C)CC4=O)c3)c(Cl)c12 [Example 44, (S)-2-amino-N-(2-(4-(3-(4-chloro-3-ethyl-1H-pyrrolo[2,3-b]pyridin-5-yl)phenyl)-3-oxopiperazin-1-yl)-2-oxoethyl)-3-methylbutanamide] |
| > 10000 | 100 to 1000 | 10 to 100 | CCc1c[nH]c2ncc(-c3nc(N4CCNCC4=O)sc3C)c(Cl)c12 [Example 20, 1-(4-(4-chloro-3-ethyl-1H-pyrrolo[2,3-b]pyridin-5-yl)-5-methylthiazol-2-yl)piperazin-2-one] |
| 300 to 3000 | ≤ 10 | ≤ 10 | CN(C)CCCS(=O)(=O)N1CCN(c2cccc(-c3cnc4[nH]cc(CC(F)F)c4c3Cl)c2)C(=O)C1 [Example 60, 1-(3-(4-chloro-3-(2,2-difluoroethyl)-1H-pyrrolo[2,3-b]pyridin-5-yl)phenyl)-4-((3-(dimethylamino)propyl)sulfonyl)piperazin-2-one] |
| > 10000 | ≤ 10 | ≤ 10 | CCc1c[nH]c2ncc(-c3cccc(N4CCN(C(=O)CCCO[C@@H]5O[C@H](CO)[C@@H](O)[C@H](O)[C@H]5O)CC4=O)c3)c(Cl)c12 [Example 48, 1-(3-(4-chloro-3-ethyl-1H-pyrrolo[2,3-b]pyridin-5-yl)phenyl)-4-(4-(((2R,3R,4S,5S,6R)-3,4,5-trihydroxy-6-(hydroxymethyl)tetrahydro-2H-pyran-2-yl)oxy)butanoyl)piperazin-2-one] |
| 3000 to 10000 | ≤ 10 | 10 to 100 | CCc1c[nH]c2ncc(-c3cccc(N4CCN(C(=O)[C@@H](N)Cc5ccccc5)CC4=O)c3)c(Cl)c12 [Example 43, 4-(L-phenylalanyl)-1-(3-(4-chloro-3-ethyl-1H-pyrrolo[2,3-b]pyridin-5-yl)phenyl)piperazin-2-one] |
| 300 to 3000 | ≤ 10 |  | CCc1c[nH]c2ncc(-c3cccc(N4CCN(C(=O)CN5CCOCC5)CC4=O)c3)c(Cl)c12 [Example 26, 1-(3-(4-chloro-3-ethyl-1H-pyrrolo[2,3-b]pyridin-5-yl)phenyl)-4-(2-morpholinoacetyl)piperazin-2-one] |
| > 10000 | > 1000 |  | CCc1c[nH]c2ncc(-c3cc(N4CCNCC4=O)ccc3CO)cc12 [Example 21, 1-(3-(3-ethyl-1H-pyrrolo[2,3-b]pyridin-5-yl)-4-(hydroxymethyl)phenyl)piperazin-2-one] |
| ≤ 300 | ≤ 10 |  | COCC(=O)N1CCN(c2cccc(-c3cnc4[nH]cc(C5CC5)c4c3Cl)c2)C(=O)C1 [Example 32, 1-(3-(4-chloro-3-cyclopropyl-1H-pyrrolo[2,3-b]pyridin-5-yl)phenyl)-4-(2-methoxyacetyl) piperazin-2-one] |
| 300 to 3000 | ≤ 10 |  | CCc1c[nH]c2ncc(-c3cccc(N4CCC[C@@H](CO)C4=O)c3)c(Cl)c12 [Example 24, (S)-1-(3-(4-chloro-3-ethyl-1H-pyrrolo[2,3-b]pyridin-5-yl)phenyl)-3-(hydroxymethyl)piperidin-2-one] |
